Laboratory results: paper PMC10049495, “Antitumor Activity of PEGylated and TEGylated Phenothiazine Derivatives: Structure–Activity Relationship” (International Journal of Molecular Sciences, 2023)
pIC50: −log10 of the molar value. Several values for one entry are separate records, joined by “and”; a condition that tells them apart may be missing. Identical values can stand only once. Like-named read-outs stand apart in the source and are kept apart here.

Legend:
[1] = system: glioblastoma cell line (U-118); experiment: Cytotoxicity MTS assay on U-118; type: cell-based, human; conditions: for pIC50: U-118, 48 h, MTS, tested 0.01-0.3 mM, read-out: Half maximal inhibition concentration (IC50)
Procedure: (§1) Cell culture: NHDF, HeLa, HOS, HepG2, MCF7, MeWo and CT-26 cells were cultivated in complete Eagle’s Minimal Essential Medium alpha (aMEM) containing a 1% Penicillin–Streptomycin–Amphotericin B mixture and a 10% fetal bovine serum under 5% CO2 humidified atmosphere at 37 °C. LN-229 cells were cultivated in DMEM with a 1% Penicillin–Streptomycin–Amphotericin B mixture and a 5% fetal bovine serum. U-118 cells were cultivated in DMEM with a 1% Penicillin–Streptomycin–Amphotericin B mixture and a 10% fetal bovine serum. StemPro™ Accutase™ Cell Dissociation Reagent was used for passaging MeWo and U-118 cells, and TrypLE Express was used for all other cell lines.
(§2) The working solutions were prepared by diluting the stock solutions with complete medium so that the final concentration of DMSO in the cell culture was 1%. The working solutions were used for incubation. Control cells were treated only with complete cell culture medium containing 1% DMSO.
(§3) Cytotoxicity MTS assay: In order to perform the MTS assay, cells were placed in culture-treated 96-well plates at densities of 5 × 10^3 cells/well (NHDF and CT-26), 7 × 10^3 cells/well (MCF7) and 10 × 10^3 cells/well (HOS, HeLa, HepG2, MeWo, LN-229, U-118) in 100 μL of a MEM medium/well and allowed to adhere for 24 h. After 24 h, the culture medium was replaced with the tested compound solutions at various concentrations, and the plates were incubated for another 48 h. Before the final reading, 20 μL CellTiter 96® Aqueous One Solution/well was added, and the plates were incubated for 1–4 h. Finally, the absorbance was recorded with a microplate reader at λ = 490 nm. The relative cell viability was expressed as a percentage of the viability of control, and the half maximal inhibitory concentration (IC50) was determined from the graphical representation of the cell viability vs. concentration. Graphical data were expressed as means ± standard error of the mean (S.E.M.). Statistical analysis was made with two-way ANOVA using Tukey’s multiple comparisons test. The difference was considered significant when p < 0.05. Data analysis was performed with GraphPad Prism software version 7.00 for Windows.

osteosarcoma (HOS) cells = experiment: Cytotoxicity MTS assay on HOS; type: cell-based, human; conditions: 48 h, tested 0.01-0.3 mM, read-out: Half maximal inhibition concentration (IC50)
Procedure: as §1, §2, §3

[2] = system: mouse colon carcinoma cell line (CT26); experiment: Cytotoxicity MTS assay on CT-26; type: cell-based; conditions: for pIC50: CT-26, 48 h; for Selectivity index (SI): IC50 NHDF / IC50 CT-26
Procedure: as §1, §2, §3

[3] = system: normal human dermal fibroblasts (NHDF); experiment: Cytotoxicity MTS assay on normal fibroblasts; type: cell-based; conditions: 48 h, tested 0.01-0.3 mM, read-out: Half maximal inhibition concentration (IC50)
Procedure: as §1, §2, §3

[4] = system: glioblastoma (LN229) cells; experiment: Cytotoxicity MTS assay on LN229; type: cell-based, human; conditions: tested 0.01-0.3 mM, read-out: Half maximal inhibition concentration (IC50)
Procedure: as §1, §2, §3

[5] = DPPH radical scavenging activity; conditions: for DPPH radical inhibition: 1 mM compound, ethanol, 1 h in the dark; for radical scavenging capacity (in words): DPPH, 0.0019-1 mM
From the text: In this light, the antioxidant activity of the studied phenothiazine derivatives was investigated using DPPH assay, measuring the dependence of the free radical inhibition on the concentration as highlighted by a decreasing of the absorbance of DPPH when the concentration of the compound is increasing. The results, expressed in percentage of inhibition, are represented in Figure 4.
Ex Vivo Radical Scavenging Activity: In order to evaluate antioxidant activity of the studied compounds, a bleaching method of the 1,1-diphenyl-2-picryl hydrazyl (DPPH) radical was used. Briefly, a stock solution of 2 mM of each compound in ethanol was prepared and then diluted to obtain 10 different concentrations from 1 mM to 0.0019 mM using a 96-well plate. The diluted solutions with different concentrations were mixed with an equal volume of ethanolic DPPH solution (0.05 mg/mL), and the mixtures were incubated in the dark at room temperature […] for 1 h. After incubation, the absorbance was read at 517 nm. Inhibition percentage was calculated using Equation (2), where Ac is the absorbance of the control sample (DPPH) and As is the absorbance of the mixtures. All measurements were made in triplicate. I % = (Ac-As)/Ac × 100 (2)

[6] = system: malignant melanoma (MeWo) cells; experiment: Cytotoxicity MTS assay on MeWo; type: cell-based, human; conditions: for Selectivity index (SI): IC50 NHDF / IC50 MeWo; for pIC50: MeWo, 48 h, MTS, tested 0.01-0.3 mM, read-out: Half maximal inhibition concentration (IC50)
Procedure: as §1, §2, §3

[7] = system: cervical carcinoma (HeLa) cells; experiment: Cytotoxicity MTS assay on HeLa; type: cell-based, human; conditions: for Selectivity index (SI): IC50 NHDF / IC50 HeLa
Procedure: as §1, §2, §3

[8] = system: liver cancer (HepG2) cells; experiment: Cytotoxicity MTS assay on HepG2; type: cell-based, human; conditions: for pIC50: HepG2, 48 h
Procedure: as §1, §2, §3

[9] = system: breast cancer (MCF7) cells; experiment: Cytotoxicity MTS assay on MCF-7; type: cell-based, human; conditions: for Selectivity index (SI): IC50 NHDF / IC50 MCF7; for pIC50: MCF-7, 48 h, MTS, tested 0.01-0.3 mM, read-out: Half maximal inhibition concentration (IC50)
Procedure: as §1, §2, §3

HepG2 = conditions: cited from earlier work
[10] = Cytotoxicity MTS assay on normal fibroblasts; type: cell-based, human; conditions: human, normal human dermal fibroblasts (NHDF), read-out: cell viability
Procedure: as §1, §2, §3

[11] = Complex formation with Mg2+ (estimate of farnesyltransferase inhibition), FTIR/UV-vis; conditions: 2/1 compound/MgCl2, 2 days at 37 °C, FTIR and UV-vis; taken as estimate of farnesyltransferase inhibition
Procedure: To estimate the ability of the studied compounds to inhibit the FT, their ability to bind the Zn^2+ or Mg^2+ ions was investigated by incubation in similar conditions as in vitro antitumor tests. The experiments indicated the ability of TEGylated derivatives to bind Mg^2+ ions, as follows.
After that, all the solutions were lyophilized, and the solid samples obtained were subjected to the FTIR spectroscopy measurements. Then, the mixtures that indicated complex formation were dissolved in DMSO, and their UV-vis spectra were recorded.

[12] = Solubility test in water with 1% DMSO; type: physicochemical; conditions: water with 1% of DMSO, read-out: concentration up to which the compound is soluble
Procedure: Solubility tests were performed to establish the maximum concentration of the compounds that might be used for in vitro tests by dissolving 0.003 mmol of compound in 1mL of water (H2O) with 1% of DMSO. The amount of solvent was increased until the compound was completely dissolved. The volume of solvent corresponding to the solving point was used to calculate the concentration. The TEGylated compounds were soluble under 0.3 mM (PTF) and 0.2 mM (PTMA, PTEA), and PEGylated compounds were soluble at to a concentration of 2 mM.

MCF-7 = conditions: reference cell empty, probably merged; cited from earlier work
CT-26 = conditions: cited from earlier work
HeLa = conditions: cited from earlier work
NHDF = system: NHDF; parameters: method as in earlier work; conditions: cited from earlier work
MeWo = conditions: cited from earlier work
[13] = MTS, tested 0.01-0.3 mM, read-out: Half maximal inhibition concentration (IC50)
[14] = HeLa, 48 h, MTS, tested 0.01-0.3 mM, read-out: Half maximal inhibition concentration (IC50)
[15] = Homo sapiens, LN-229, LN229, 48 h
[16] = Homo sapiens, MTS, tested 0.01-0.3 mM, read-out: Half maximal inhibition concentration (IC50)

Row | Molecule | pIC50 [1] | pIC50 (osteosarcoma (HOS) cells) | pIC50 [2, 13] | Selectivity index (SI) [2] | pIC50 [3] | pIC50 ([4]; LN229, 48 h) | DPPH radical inhibition [5] | pIC50 [6] | pIC50 [7, 14] | Selectivity index (SI) [7] | pIC50 [8, 13] | Selectivity index (SI) ([8]; IC50 NHDF / IC50 HepG2) | Selectivity index (SI) [9] | pIC50 [9] | pIC50 (HepG2) | also measured
1 | 4-((((10-(poly(ethylene glycol))-10H-phenothiazin-3-yl)methylene)amino)ethyl)benzenesulfonamide [PPEA] | 4.00 | < 3.52 | 4.54 | 3.44 | 3.97 | 3.96 | 47% | 4.17 | 4.07 | 1.25 | 4.40 | 2.5 | 1.11 | 4.05 | – | Selectivity index (SI) [6]: 1.66
2 | c1ccc2c(c1)Nc1ccccc1S2 [PTZ, phenothiazine] | – | – | – | – | – | – | 67% | – | – | – | – | – | – | – | – | pIC50 ([1]; Homo sapiens): < 3.52; pIC50 (osteosarcoma (HOS) cells; Homo sapiens): < 3.52; pIC50 ([2]; Mus musculus, CT26, MTS, tested 0.01-0.3 mM, read-out: Half maximal inhibition concentration (IC50)): 3.73; pIC50 ([3]; Homo sapiens): 3.76; pIC50 [4, 15]: < 3.52; pIC50 ([6]; Homo sapiens): < 3.52; pIC50 ([7]; Homo sapiens, HeLa, 48 h, MTS, tested 0.01-0.3 mM, read-out: Half maximal inhibition concentration (IC50)): 3.62; Selectivity index (SI) [8]: 2.42; pIC50 [8, 16]: 4.14; pIC50 ([9]; Homo sapiens, MCF7): 3.73
3 | Clc1ccc(-n2cc(CN3c4ccccc4Sc4ccccc43)nn2)cc1 [10-((1-(4-Chlorophenyl)-1H-1,2,3-triazol-4-yl)methyl)-10Hphenothiazine] | – | – | – | – | – | – | – | – | – | – | – | – | – | – | 5.89 | –
4 | 4-((((10-(poly(ethylene glycol))-10H-phenothiazin-3-yl)methylene)amino)methyl) benzenesulfonamide [PPMA] | 4.04 | < 3.52 | 4.40 | 3.75 | 3.82 | 3.62 | 44% | 3.98 | 3.94 | 1.36 | 4.27 | 3 | 1.66 | 4.05 | – | Selectivity index (SI) ([1]; IC50 NHDF / IC50 U118MG): 1.66; Selectivity index (SI) [6]: 1.5
5 | COCCOCCOCCN1c2ccccc2Sc2cc(C=O)ccc21 [PTF, 10-(triethylene glycol)-10H-phenothiazine-3-carbaldehyde] | – | – | – | 2.38 | – | – | – | – | – | 10 | – | 3 | 1.5 | – | – | pIC50 ([1]; Homo sapiens): 3.72; pIC50 (osteosarcoma (HOS) cells; Homo sapiens): < 3.52; viability at 100 µM ([2]; Mus musculus, CT26, CT-26, 0.1 mM, 48 h, MTS): 30%; pIC50 ([2]; Mus musculus, CT26, MTS, read-out: IC50): 4.20; pIC50 ([3]; Homo sapiens): 3.82; viability at 48 h, 0.05 mM ([10]; 0.05 mM): 86%; viability at 48 h, 0.2 mM ([10]; 0.2 mM): 33%; pIC50 [4, 15]: 3.73; radical scavenging capacity (in words) [5]: very low radical scavenging capacity; pIC50 ([6]; Homo sapiens): 3.83; viability at 50 µM ([7]; Homo sapiens, HeLa, 0.05 mM, 48 h, MTS, read-out: cell viability): 11%; pIC50 ([7]; Homo sapiens, HeLa, 48 h, MTS, read-out: IC50): 4.82; viability at 100 µM ([8]; Homo sapiens, HepG2, 0.1 mM, 48 h, MTS, read-out: cell viability): 27%; pIC50 ([8]; Homo sapiens, MTS, read-out: IC50): 4.28; pIC50 [8, 16]: 4.30; ability to bind Mg^2+ ions (in words) [11]: dative bond with magnesium; solubility [12]: < 300 µM; pIC50 ([9]; Homo sapiens, MCF7): 3.97
6 | COc1ccc(-n2cc(CN3c4ccccc4Sc4ccccc43)nn2)cc1 [10-((1-(4-Methoxyphenyl)-1H-1,2,3-triazol-4-yl)methyl)-10Hphenothiazine] | – | – | – | – | – | – | – | – | – | – | – | – | – | – | 4.82 | –
7 | COc1cccc2c1C(=O)c1c(O)c3c(c(O)c1C2=O)C[C@@](O)(C(=O)CO)C[C@@H]3O[C@H]1C[C@H](N)[C@H](O)[C@H](C)O1 [Doxorubicin] | – | – | – | – | – | – | – | – | – | – | – | – | – | – | 5.99 | pIC50 (MCF-7): 7.15; pIC50 (CT-26): 5.00; pIC50 (HeLa): 6.74; pIC50 (NHDF): 6.86; pIC50 (MeWo): 4.06
8 | O=c1[nH]cc(F)c(=O)[nH]1 [5-Florouracil] | – | – | – | – | – | – | – | – | – | – | – | – | – | – | 3.60 | pIC50 (CT-26): 3.52; pIC50 (HeLa; reference cell empty, probably merged): 3.17; pIC50 (NHDF): 4.60; pIC50 (MeWo): 4.21
9 | OC(CNCCc1ccccc1)CN1c2ccccc2Sc2ccccc21 (stereo not shown) [1-Phenethylamino-3-(10H-phenothiazin-10-yl)-2-propanol] | – | – | – | – | – | – | – | – | – | – | – | – | – | – | – | pIC50 (HeLa): 5.00
10 | 10-(poly(ethylene glycol))-10H-phenothiazine-3-carbaldehyde [PPF] | < 3.52 | < 3.52 | 3.85 and 3.86 | – | < 3.52 | < 3.52 | – | 3.63 | < 3.52 | – | 4.00 and 3.97 | – | – | 3.57 | – | radical scavenging capacity (in words) [5]: very low radical scavenging capacity
